Measurements reported in US20050208151A1, “Treatment of rheumatoid arthritis with FLIP antagonists” (Entelos, Inc., priority 2003, published 2005).

How the values were obtained:
[1] = tested on: RA patients' synovial macrophages; settings: Fas agonist with vs without BIS, which blocked FLIP expression; cited from earlier work
rheumatoid arthritis = settings: methotrexate treatment; level after 6 months therapy; cited from earlier work
[2] = tested on: MNC and macrophages from RA synovial fluid; test: uptake of FITC-labeled oligonucleotides by flow cytometry; type: cell-based, human; settings: 10-20 μM, 24h, 70% ETOH fixed cells
Method: MNC and macrophages from RA synovial fluid are incubated for 24h with FITC-labeled antisense phosphorothioate oligodeoxynucleotides (10-20 μM) comprising the FLIP initiation codon (5′-[…]-3′) (SEQ ID NO: 2). A nonsense oligonucleotides is used as negative control (for example; 5′-TGGATCCGACATGTCAGA-3′) (SEQ ID NO: 3). Uptake of the FITC-labeled oligonucleotides are measured by flow cytometry on 70% ETOH fixed cells. A 80-90% transfection efficiency is expected. A general caspase inhibitor (e.g., 20 μM zVAD.fmk) is used as negative control in all apoptosis assays. As a positive control of macrophage apoptosis, the cells are treated with 50 μM of the phosphatidylinositol 3-kinase inhibitor LY294002 for 24 h.

CN(C)CCCn1cc(C2=C(c3c[nH]c4ccccc34)C(=O)NC2=O)c2ccccc21 [bisinodylmaleimide I]
increase in macrophage apoptosis [1]: ~9 fold

CN(Cc1cnc2nc(N)nc(N)c2n1)c1ccc(C(=O)N[C@@H](CCC(=O)O)C(=O)O)cc1 [Methotrexate, methotrexate]
decrease in rate of cartilage degradation (rheumatoid arthritis): approximately 17%
decrease in synovial cell density (rheumatoid arthritis): approximately 33%

5′-GACTTCAGCAGACATCCTAC-3′ (DNA, all phosphorothioate, methylation of C not given here; FITC label; listed as Homo sapiens) [FITC-labeled antisense phosphorothioate oligodeoxynucleotides comprising the FLIP initiation codon]
transfection efficiency (uptake of FITC-labeled oligonucleotides) [2]: 80-90%
